Target: T1, AMPA (GluR1) receptor (Homo sapiens, UniProt P42261)
T1 construct: expressed in transfected cells; host or cells: HEK cells (HEK.GluR1(i)), kept under hygromycin selection
Experiment: Ca2+ influx fluorescence assay (FLEXstation, Fluo-3)
Assay type: cell-based
Conditions: HEK.GluR1(i) cells, glutamate +/- test compound, Ca2+ influx measured with fluo3; read-out: EC50, positive modulation of the AMPA receptor
Description: The compounds in this invention may be tested using a biological assay which measures Ca^2+ influx mediated through positive modulation of the AMPA (GluR1) receptor using standard techniques in the art such as, but not limited to, a FLEXstation (manufactured by Molecular Devices, Sunnyvale, Calif.). An optical readout using fluorescent probes is employed to measure ion channel dependent changes in intracellular ion concentration or membrane potential. The assay utilises the Ca^2+ conductance of functional homomeric GluR1(i) AMPA receptors to generate glutamate-dependent Ca^2+ responses. Influx of Ca^2+ through the ion channel is measured indirectly through an increase in intracellular Ca^2+ levels using the calcium sensitive dye such as, but not limited to, Fluo-3 (Molecular Devices, Sunnyvale, Calif.) in FLEXstation. A positive AMPA receptor modulator, in the presence of glutamate, will result in an influx of Ca^2+ through the ion channel which can be measured indirectly through an increase in intracellular Ca2+ levels using the calcium sensitive dye Fluo-3 in FLEXstation.
HEK.GluR1(i) cells were maintained in DMEM supplemented with 10% fetaclone II, 1% non-essential amino acids and 150 μg/mL hygromycin, at 37° C./5% CO2. […]

T1 sequence (P42261 19-906 isoform P42261-2 limits assumed, species assumed): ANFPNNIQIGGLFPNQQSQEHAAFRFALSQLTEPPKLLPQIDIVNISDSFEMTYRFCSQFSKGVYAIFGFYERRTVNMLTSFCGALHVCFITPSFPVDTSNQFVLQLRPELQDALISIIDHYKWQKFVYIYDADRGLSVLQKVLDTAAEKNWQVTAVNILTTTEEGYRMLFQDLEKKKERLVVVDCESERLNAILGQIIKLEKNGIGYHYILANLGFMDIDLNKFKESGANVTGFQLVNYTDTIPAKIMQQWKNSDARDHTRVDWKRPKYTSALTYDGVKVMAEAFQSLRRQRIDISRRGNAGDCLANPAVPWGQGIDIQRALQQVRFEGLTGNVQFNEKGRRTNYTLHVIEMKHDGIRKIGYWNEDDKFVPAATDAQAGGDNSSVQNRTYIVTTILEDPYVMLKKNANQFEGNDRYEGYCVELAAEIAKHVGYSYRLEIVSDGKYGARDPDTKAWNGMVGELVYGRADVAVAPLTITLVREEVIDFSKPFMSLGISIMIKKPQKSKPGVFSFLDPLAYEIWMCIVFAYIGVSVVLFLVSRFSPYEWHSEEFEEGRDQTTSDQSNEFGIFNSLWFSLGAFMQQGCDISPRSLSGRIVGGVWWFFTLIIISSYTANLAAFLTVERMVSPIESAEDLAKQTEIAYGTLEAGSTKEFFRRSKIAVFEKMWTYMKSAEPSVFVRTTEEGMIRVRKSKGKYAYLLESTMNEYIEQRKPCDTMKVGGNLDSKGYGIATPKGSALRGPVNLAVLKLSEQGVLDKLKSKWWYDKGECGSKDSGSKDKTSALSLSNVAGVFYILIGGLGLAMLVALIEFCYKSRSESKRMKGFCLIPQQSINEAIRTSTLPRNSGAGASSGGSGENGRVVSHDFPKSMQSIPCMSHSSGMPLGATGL

`O=S(=O)(N[C@H]1Cc2ccc(Cn3cc(CO)c(C(F)(F)F)n3)cc2C1)c1ccco1` [Example 18, (S)—N-(5-((4-(hydroxymethyl)-3-(trifluoromethyl)-1H-pyrazol-1-yl)methyl)-2,3-dihydro-1H-inden-2-yl)furan-2-sulfonamide] gave an EC50 of 2500 nM.

From patent US8536214B2, “Indane derivatives as AMPA receptor modulators” (priority 2008, dated 2013)
